The test system of experiment [1] is T cell clone HER500.23c21. Description: Epitope mapping of clone HER500.23c21 with individual HER500 15-mer peptides and autologous EBV-LcL (IFNγ ELISA, IL-2 by HT-2 proliferation). Format: cell-based, human. The following applies: each peptide 1 ug/ml; autologous EBV LCL cells as antigen presenting cells. As for the experimental part:
FIG. 2. T cell clone HER500.23.21 is specific for Peptide #63 (HERp270-284). The HER-2/neu epitope was mapped for clone HER500.23.21 and specificity was determined using autologous EBV-LcLs and each individual HER500 peptide #1-125 (15 amino acids in length). The assay was set up in 96 well round bottom plates with autologous EBV-LcLs at 2×10^5 cells/well and the T cell clone HER500.23.21 added at 1×10^5 cells/well. Each peptide was used at a final concentration of 1 ug/mL. The assay was incubated at 37° C. with 5% CO2 for 48 hours at which time supernatant was removed to test for cytokine production. (A) IFNγ production by clone HER500.23.21 was measured using ELISA, calculated pg/mL is shown for each HER500 peptide. (B) IL-2 production was measured using HT-2 cell proliferation.
Identification and Characterization of HER-2/neu specific T cell clones. […]
Cytokine Production. […] IL-2 production was measured using the IL-2 dependent line HT-2 (ATCC). […] TdR was added for the final 6 hours of the assay and plates were harvested to glass fiber filter mats and DNA incorporation of the radioisotope, or proliferative response, was determined by counts per minute using a liquid scintillation counter (PerkinElmer Life and Analytical Sciences, Inc. Boston, Mass.). IFNγ production was measured using anti-human IFNγ antibody pairs for ELISA (BD Pharmingen, San Diego, Calif.). […]

Experiment [2] concerns T cell clone HER500.23c21. Nature of the experiment: HLA-DR promiscuity: HERp270-284 presented by EBV-LcL lines homozygous for HLA-DRB1* alleles to HER500.23c21 (IFNγ ELISA). It counts as cell-based, human. As for the experimental part:
FIG. 4. HERp270-284 is a promiscuous MHC Class II HER-2/Neu epitope. (A) EBV-LcL lines homozygous for various HLA-DR alleles were tested for their ability to present HERp270-284 to clone HER500.23c21. Antigen-specific IFNγ production by HER500.23c21 was above the upper detection limit of the IFNγ ELISA (4000 pg/mL) with all EBV-LcL lines. […] The assay was set up in 96 well round bottom plates in cRPMI+10% FBS with 2×10^5 EBV-LcL/well and 1×10^5 HER500.23c21 cells/well. Peptides were used at a final concentration of 1 μg/mL. The assay was incubated for 48 hours at 37° C. with 5% CO2. Supernatants were harvested, frozen at −20° C. and then analyzed for IFNγ by ELISA. Results are shown for one representative experiment. (B) HERp270-284 was titrated with each EBV LcL line to determine the sensitivity of HER500.23c21 to different alleles. The assay was set up as in (A) except HERp270-284 concentrations are: 10 ng/mL, 33 ng/mL, 66 ng/mL, 100 ng/mL and 250 ng/mL. […] Results are shown for one representative experiment.
Cytokine Production. To determine cytokine production in the antigen specific stimulation assays, after 48 hours, 200 μL of supernatant was pulled from cultures and tested for both IL-2 and IFNγ production. IL-2 production was measured using the IL-2 dependent line HT-2 (ATCC). HT-2 cells were grown in IMDM with 10% FBS and 100 uM NEAA, 1 mM Sodium Pyruvate, 2 mM L-glutamine, […], 50 U/mL Streptomycin, 20 mM HEPES and 20 uM 2-Mercaptoethanol (cIMDM+10% FBS) and fed twice a week with 20 ng/mL rIL-2. For the assay, 4 days after HT-2 cells were split, cells were washed with IMDM+10% FBS to remove all rIL-2, and cells were added to 96 well round bottom plates at 1×10^4 cells/well in cIMDM+10% FBS. Supernatants from antigen specific stimulation were added to wells and plates were incubated 24-30 hours at 37° C. The following day 1 μCi of ^3[H] TdR was added for the final 6 hours of the assay and plates were harvested to glass fiber filter mats and DNA incorporation of the radioisotope, or proliferative response, was determined by counts per minute using a liquid scintillation counter (PerkinElmer Life and Analytical Sciences, Inc. Boston, Mass.). IFNγ production was measured using anti-human IFNγ antibody pairs for ELISA (BD Pharmingen, San Diego, Calif.). Briefly, Immulon 4 plates (Thermo Labsystems/VWR, Brisbane, Calif.) were coated overnight with purified anti-human IFNγ antibody (NIB42) at 3 μg/mL. The next day coating antibody was discarded and 4% Bovine Serum Albumin (BSA) (Sigma, St. Louis, Mo.) in PBS (Invitrogen) was added to wells and plates were incubated for 2 hours at 37° C. Plates were washed with PBS+0.05% Tween 20 and 100 μL of supernatant samples from the antigen specific stimulation was added to wells and incubated at room temperature for 1.25-2 hours. Plates were washed and biotinylated anti-human IFNγ antibody (4S.B3) was diluted in 1% BSA in PBS (1 μg/mL) and added to plates for 1 hour at room temperature. After washing plates, Strep-Avidin HRP (BD Pharmingen) was diluted 1:1000 in PBST and added to wells for 30 minutes at room temperature. Finally, plates were washed and Sigma® Fast OPD was added for 15 minutes in the dark. 2M HCl was added to stop the reaction and plates were read for absorbance at 492 nm on a spectrophotometer.
HLA-DR Restriction and Promiscuity. To determine HLA-DR restriction of the T cell epitope HERp270-284, anti-HLA-DR mAb L243, HLA-DQ mAb 1a3 or HLA-DP mAb B7/21 (20-1.25 μg/mL) were cultured with T cell clone HER.23c21, peptide HERp270-284 and autologous EBV-LcL in cRPMI+10% FBS media. Supernatants were harvested after 48 hours and tested for IL-2 and IFNγ production. HERp270-284 was also tested for HLA-DR promiscuity using EBV-LcL lines purchased from the European Collection of Cell Cultures originating from the 12th International Histocompatibility Workshop (IHW) held in Strasbourg, France. […]

For the sequence “ALVTYNTDTFESMPN (HER-2/Neu peptide 270-284, HER500 peptide #63, HERp270-284, HER-2/Neu epitope 270-284, residues 3-17 of SEQ ID NO1) [Peptide 63]”, the “response of HER500.23c21 measured by IFNγ or IL2 production” value in experiment [1] was “responded to only one individual peptide”. The “T cell response induced, regardless of the EBV-LCL line used” value in experiment [2] (1 ug/ml peptide) is “maximal T cell response”. In addition, the “IFNγ production by HER500.23c21 (ELISA), peptide titration” value in experiment [2] (all HERp270-284 concentrations above 250 ng/mL, each EBV LcL line) is reported as over 4000 pg/mL. Also, in experiment [2] (allele DRB1*0401), the “lowest peptide concentration able to stimulate Her500.23c21” value was found to be 10 ng/mL. Moreover, the “peptide concentration below which allele was unable to stimulate Her500.23c21” value in experiment [2] (allele DRB1*1103) is at least 250 ng/mL. Besides, the “number of HLA-DRB1* alleles for which the epitope is promiscuous (presented to HER500.23c21)” value in experiment [2] (panel of 25 EBV LcL lines homozygous for different HLA-DRB1* alleles, 13 DR serological families) was “at least 25”. In experiment [2] (peptide 1 μg/mL, all EBV-LcL lines, 48 hours, upper detection limit 4000 pg/mL), the “Antigen-specific IFNγ production by HER500.23c21 (ELISA)” value is over 4000 pg/mL.
